Results published in the supplement of paper PMC10307832.

Legend:
Assay in all cases: relative viability (nuclei count vs DMSO), 5 days (fraction); higher = more cells survive
[1] = compound: COc1cc(-c2nn([C@H]3CC[C@H](N4CCN(C(C)=O)CC4)CC3)c3ncnc(N)c23)ccc1NC(=O)c1cc2ccccc2n1C + Nc1ncn([C@H]2C[C@H](O)[C@@H](CO)O2)c(=O)n1 [Decitabine] (partner 2 µM)
Summary of the method: (§1)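 Medians of duplicate plates are given as relative viability. That measure is the nuclei count in treated wells divided by the count in vehicle wells. Counts were taken on 4× images of lung cancer cell lines in 1536-well plates, 5 days after pin-tool dosing the day after seeding with one drug alone or a fixed anchor-drug dose plus five library-drug doses (not always all listed) in √10 steps.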

[2] = compound: COc1cc(-c2nn([C@H]3CC[C@H](N4CCN(C(C)=O)CC4)CC3)c3ncnc(N)c23)ccc1NC(=O)c1cc2ccccc2n1C + Nc1nc2[nH]cc(CCc3ccc(C(=O)N[C@@H](CCC(=O)O)C(=O)O)cc3)c2c(=O)[nH]1 [Pemetrexed] (partner 0.2 µM)
Summary of the method: as §1

[3] = compound: COc1cc(-c2nn([C@H]3CC[C@H](N4CCN(C(C)=O)CC4)CC3)c3ncnc(N)c23)ccc1NC(=O)c1cc2ccccc2n1C + COc1cccc2cc(-c3nc([C@H]4CC[C@H](C(=O)O)CC4)n4ncnc(N)c34)[nH]c12 [OSI-027] (partner 0.5 µM)
Summary of the method: as §1

[4] = compound: COc1cc(-c2nn([C@H]3CC[C@H](N4CCN(C(C)=O)CC4)CC3)c3ncnc(N)c23)ccc1NC(=O)c1cc2ccccc2n1C + CC1(C)CCC(c2ccc(Cl)cc2)=C(CN2CCN(c3ccc(C(=O)NS(=O)(=O)c4ccc(N[C@H](CCN5CCOCC5)CSc5ccccc5)c(S(=O)(=O)C(F)(F)F)c4)cc3)CC2)C1 [Navitoclax] (partner 0.5 µM)
Summary of the method: as §1

[5] = compound: COc1cc(-c2nn([C@H]3CC[C@H](N4CCN(C(C)=O)CC4)CC3)c3ncnc(N)c23)ccc1NC(=O)c1cc2ccccc2n1C + C[C@@H](Oc1cc(-c2cnn(C3CCNCC3)c2)cnc1N)c1c(Cl)ccc(F)c1Cl [Crizotinib] (partner 1 µM)
Summary of the method: as §1

| Cell Line | relative viability ([1]; first compound 0.0128 µM) | relative viability ([1]; first compound 0.04048 µM) | relative viability ([1]; first compound 0.128 µM) | relative viability ([1]; first compound 1.28 µM) | relative viability ([2]; first compound 0.0128 µM) | relative viability ([2]; first compound 0.04048 µM) | relative viability ([2]; first compound 0.128 µM) | relative viability ([2]; first compound 1.28 µM) | relative viability ([3]; first compound 0.0128 µM) | relative viability ([3]; first compound 0.04048 µM) | relative viability ([3]; first compound 0.128 µM) | relative viability ([3]; first compound 1.28 µM) | relative viability ([4]; first compound 0.0128 µM) | relative viability ([4]; first compound 0.04048 µM) | relative viability ([4]; first compound 0.128 µM) | relative viability ([4]; first compound 1.28 µM) | relative viability ([5]; first compound 0.0128 µM) | relative viability ([5]; first compound 0.04048 µM) | relative viability ([5]; first compound 0.128 µM) | relative viability ([5]; first compound 1.28 µM) |
| --- | --- | --- | --- | --- | --- | --- | --- | --- | --- | --- | --- | --- | --- | --- | --- | --- | --- | --- | --- | --- |
| NCI-H460 | 0.495 | 0.452 | 0.451 | 0.433 | 0.0604 | 0.0561 | 0.0601 | 0.0597 | 0.609 | 0.584 | 0.623 | 0.395 | 1.2 | 1.41 | 1.03 | 0.862 | 0.854 | 1.01 | 0.966 | 0.682 |
| NCI-H1734 | 0.521 | 0.468 | 0.516 | 0.479 | 0.432 | 0.391 | 0.406 | 0.432 | 0.659 | 0.551 | 0.613 | 0.485 | 0.879 | 0.719 | 0.744 | 0.736 | 0.745 | 0.596 | 0.669 | 0.56 |
| LXF-289 | 0.419 | 0.368 | 0.369 | 0.362 | 1.01 | 0.881 | 0.901 | 1.16 | 0.875 | 0.76 | 0.71 | 0.652 | 1.01 | 0.886 | 0.967 | 0.959 | 0.863 | 0.794 | 0.864 | 0.98 |
| H3255 | 0.617 | 0.504 | 0.609 | 0.472 | 0.628 | 0.567 | 0.578 | 0.489 | 0.564 | 0.476 | 0.573 | 0.552 | 0.398 | 0.441 | 0.466 | 0.259 | 0.938 | 0.981 | 0.81 | 0.468 |
| 201T | 0.929 | 0.919 | 0.809 | 0.615 | 0.394 | 0.288 | 0.316 | 0.309 | 0.646 | 0.765 | 0.746 | 0.339 | 1.27 | 1.3 | 1.22 | 1.03 | 1.02 | 1.05 | 0.941 | 0.815 |
| NCI-H2126 | 0.612 | 0.551 | 0.608 | 0.457 | 0.621 | 0.656 | 0.669 | 0.618 | 0.686 | 0.661 | 0.646 | 0.547 | 0.858 | 0.863 | 0.79 | 0.641 | 1.16 | 1.08 | 1.04 | 0.749 |
| HOP-62 | 0.241 | 0.191 | 0.207 | 0.283 | 0.382 | 0.332 | 0.289 | 0.387 | 0.86 | 0.734 | 0.817 | 0.707 | 1.06 | 1.18 | 0.825 | 1.1 | 0.887 | 0.957 | 0.803 | 0.714 |
| NCI-H520 | 0.508 | 0.502 | 0.436 | 0.368 | 0.637 | 0.732 | 0.603 | 0.409 | 0.191 | 0.252 | 0.201 | 0.174 | 1.16 | 1.06 | 0.995 | 0.861 | 0.763 | 0.621 | 0.628 | 0.549 |
| NCI-H1755 | 0.768 | 0.738 | 0.699 | 0.611 | 0.438 | 0.43 | 0.577 | 0.57 | 0.829 | 0.644 | 0.676 | 0.662 | 1.09 | 1.01 | 0.927 | 0.803 | 1 | 0.795 | 0.875 | 0.616 |
| NCI-H2023 | 0.219 | 0.219 | 0.218 | 0.228 | 0.258 | 0.211 | 0.229 | 0.242 | 0.409 | 0.4 | 0.423 | 0.28 | 0.999 | 1.06 | 1.02 | 0.835 | 0.587 | 0.736 | 0.592 | 0.412 |
| NCI-H2009 | 0.352 | 0.386 | 0.33 | 0.357 | 1.03 | 1.09 | 1.21 | 1.19 | 0.618 | 0.463 | 0.635 | 0.54 | 1.16 | 1.16 | 1.2 | 1.14 | 1.09 | 0.94 | 1.04 | 0.906 |
